Measurements published in patent publication US20240124478A1, “SPIROCYCLIC-SUBSTITUTED 6,7-DIHYDRO-PYRANO[2,3-d]PYRIMIDINE INHIBITORS OF KRAS G12C MUTANT” (Merck Sharp & Dohme LLC, priority 2020, published 2024).
Read-outs that look alike come from different tables or passages of the source.

Columns and labels:
NCI-H358 cells = assay: Cellular phospho-ERK assay; type: cell-based; conditions: 2 hour incubation, ratio of p-Erk vs total Erk, read-out: IC50 (nM) pERK (Cell)
Protocol: NCI-H358 cells (ATCC® CRL-5807™) were cultured in T150 flask in growth medium (RPMI medium 1640-(ThermoFisher Scientific 61870) containing 10% fetal bovine serum (ThermoFisher Scientific 10091148)). The cells were harvested in growth medium after TrypLE (ThermoFisher scientific 12604021) digestion and were seeded in 384-well collagen coated cell culture plate (Corning 356702) at a density of 15,000 cells/well, and incubated at 37° C., 5% CO2 overnight. The compound dose-response titrations were prepared and appropriate amounts of compounds were dispensed in a 384-well intermediate plate using an Echo 550 liquid handler. RPMI medium 1640-GlutaMAX™-I were added to the intermediate plate and transferred to 384-well cell culture plate, which was incubated at 37° C., 5% CO2 for 2 hours. After removal of medium from the plate, cells were lysed in lysis buffer from SureFire® Ultra™ Multiplex p-Erk and total Erk assay kit (PerkinElmer MPSU-PTERK) containing Halt™ Protease and Phosphotase inhibitor cocktail (ThermoFisher Scientific 78446) at room temperature with constant shaking at 300 rpm for 30 minutes. The cell lysates were then transferred to OptiPlate-384 plate (PerkinElmer 6005620) and the phosphorylation of Erk and total Erk levels were detected by Alpha SureFire Ultra Multiplex p-Erk kit PerkinElmer MPSU-PTERK) following the manufacturer's protocol. Assay plates were read on an EnVision Multimode Plate Reader (PerkinElmer), and the ratio of p-Erk vs total Erk in each well was used as the final readout. Dose response curves were analyzed using a 4-parameter logistic model to calculate IC50 values using spotfire software.

[1] = molecular target: recombinant biotinylated KRAS protein containing G12C/C51S/C80L/C118S mutations (Biotinylated KRAS G12C protein) (Homo sapiens (Human), UniProt P01116, C118S/C51S/C80L/G12C); assay: SOS-catalyzed nucleotide exchange assay (TR-FRET); type: biochemical; conditions: apparent potency; preincubation time of 60 minutes prior to addition of SOS
Protocol: The SOS-catalyzed nucleotide exchange assay utilizes a preformed complex of recombinant biotinylated KRAS protein containing G12C/C51S/C80L/C118S mutations (183 amino acids; biotin on K10; leader sequence which is an AviTag; referred to as SEQ ID NO: 1 or “Biotinylated KRAS G12C protein” hereafter), Bodipy-GDP, and Terbium-streptavidin. Compounds are added to this complex and then after 60 minutes incubation time, the mixture is treated with recombinant SOS protein and unlabeled GTP. Small molecule inhibitors stabilize the Bodipy-GDP complex whereas the untreated protein rapidly exchanges Bodipy-GDP for unlabeled GTP resulting in reduced TR-FRET signal.
Biotinylated KRAS G12C protein (SEQ ID NO: 1) is diluted to 2 μM in an EDTA buffer (20 mM HEPES, 150 mM sodium chloride, 10 mM EDTA, and 0.01% Tween) and incubated at room temperature for one hour. This mixture is then further diluted to 90 nM in an assay buffer (20 mM HEPES, 150 mM sodium chloride, 10 mM magnesium chloride, and 0.005% Tween) containing 15 nM of Terbium-Streptavidin (Invitrogen, catalog #PV3577) and 900 nM of Bodipy-GDP and incubated at room temperature for six hours. This solution is referred to as Biotinylated KRAS G12C mixture.
Each test compound (10 mM stock in DMSO) is diluted in DMSO to make a 10-point, 3-fold dilution series in a 384-well low dead volume microplate (Labcyte, catalog #LP-0200). Once titrations are made, 10 nL of the diluted compounds is acoustically dispensed into a 384-well plate (Corning, catalog #3820) using an Echo 550 (Labcyte).
Each well of the plate receives 3 μL Biotinylated KRAS G12C mixture that had been incubating for six hours and 3 μL of assay buffer using a BioRAPTR (Beckman Coulter) and is incubated at room temperature for 60 minutes. Each well then receives 3 μL of 240 nM recombinant human SOS protein and 9 mM GTP (Sigma, G8877) in assay buffer and is incubated at room temperature for 60 minutes.
The time-resolved fluorescence resonance energy transfer signal of the plate is measured on an Envision (PerkinElmer) plate reader: Excitation filter=340 nm; emission1=495 nm; emission2=520 nm; dichroic mirror=D400/D505; delay time=100 μs. The signal of each well is determined as the ratio of the emission at 520 nm to that at 495 nm. Percent effect of each well is determined after normalization to control wells containing DMSO (no effect) or a saturating concentration of inhibitor (max effect). The apparent effect as a function of compound concentration is fit to a four parameter logistic equation.

Sequence of recombinant biotinylated KRAS protein containing G12C/C51S/C80L/C118S mutations (Biotinylated KRAS G12C protein) (P01116 other isoform, or with tags, fused parts or gaps, stated change not applied): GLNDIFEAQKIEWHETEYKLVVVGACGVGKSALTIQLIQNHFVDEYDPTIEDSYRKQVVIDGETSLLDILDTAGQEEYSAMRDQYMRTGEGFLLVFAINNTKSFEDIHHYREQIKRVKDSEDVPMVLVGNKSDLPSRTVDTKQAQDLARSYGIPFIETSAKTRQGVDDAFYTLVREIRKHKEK

Row | SMILES | IC50 (NCI-H358 cells; Homo sapiens, NCI-H358, 2 h) | IC50 [1] | IC50 (NCI-H358 cells)
1 | C=CC(=O)N1CCN(c2nc(C(N)=O)nc3c2CCC2(CCCc4ccccc42)O3)C[C@@H]1CC#N (single isomer, unassigned) [Example 18b] | 1520 nM | 268 nM | –
2 | C=CC(=O)N1CCN(c2nc(C(=O)N[C@H](C)CN(C)C)nc3c2CCC2(CCCc4cccc(C)c42)O3)CC1 (single isomer, unassigned) [Example 19a] | 30000 nM | 8470 nM | –
3 | C=CC(=O)N1CCN(c2nc(N3CC(N(C)C)C3)nc3c2CCC2(CCCc4ccccc42)O3)C[C@@H]1CC#N (single isomer, unassigned) [Example 20a] | 1470 nM | 41.8 nM | –
4 | C=CC(=O)N1CCN(c2nc(N3CC(N(C)C)C3)nc3c2CCC2(CCCc4ccccc42)O3)C[C@@H]1CC#N (single isomer, unassigned) [Example 20b] | – | 80.4 nM | 2760 nM
5 | C=CC(=O)N1CCN(c2nc(OC[C@@H]3CCCN3C)nc3c2CCC2(CCCc4ccccc42)O3)CC1 (single isomer, unassigned) [Example 21a] | 10200 nM | 5340 nM | –
6 | C=CC(=O)N1CCN(c2nc(OC[C@@H]3CCCN3C)nc3c2CCC2(CCc4ccccc42)O3)CC1 (single isomer, unassigned) [Example 22a] | 24600 nM | 6320 nM | –
7 | C=CC(=O)N1CCN(c2nc(OC[C@@H]3CCCN3C)nc3c2CCC2(CCCc4cccc(Cl)c42)O3)CC1 (single isomer, unassigned) [Example 23a] | 26500 nM | 5070 nM | –
8 | C=CC(=O)N1CCN(c2nc(OC[C@@H]3CCCN3C)nc3c2CCC2(CCCc4cccc(C)c42)O3)CC1 (single isomer, unassigned) [Example 24a] | 12900 nM | 2390 nM | –
9 | C=CC(=O)N1CCN(c2nc(OC[C@@H]3CCCN3C)nc3c2CCC2(CC(C)c4ccccc42)O3)C[C@@H]1CC#N (single isomer, unassigned) [Example 25a] | – | 14.2 nM | 1100 nM
10 | C=CC(=O)N1CCN(c2nc(OC[C@@H]3CCCN3C)nc3c2CCC2(CC(C)c4ccccc42)O3)C[C@@H]1CC#N (single isomer, unassigned) [Example 25b] | – | 11.6 nM | 2740 nM
11 | C=CC(=O)N1CCN(c2nc(OC[C@@H]3CCCN3C)nc3c2CCC2(CC(C)c4ccccc42)O3)C[C@@H]1CC#N (single isomer, unassigned) [Example 25c] | – | 253 nM | 11000 nM
12 | C=CC(=O)N1CCN(c2nc(OC[C@@H]3CCCN3C)nc3c2CCC2(CC(C)c4ccccc42)O3)C[C@@H]1CC#N (single isomer, unassigned) [Example 25d] | – | 113 nM | 8130 nM
13 | C=CC(=O)N1CCN(c2nc(OC[C@@H]3CCCN3C)nc3c2CCC2(O3)c3ccccc3CC2(C)C)C[C@@H]1CC#N (single isomer, unassigned) [Example 27a] | 30000 nM | 1080 nM | –
14 | C=CC(=O)N1CCN(c2nc(OC[C@@H]3CCCN3C)nc3c2CCC2(O3)c3ccccc3CC2(C)C)C[C@@H]1CC#N (single isomer, unassigned) [Example 27b] | – | 4490 nM | 28600 nM
15 | C=CC(=O)N1CCN(c2nc(OC[C@@H]3CCCN3C)nc3c2CCC2(CCc4c2ccc2[nH]ncc42)O3)C[C@@H]1CC#N (single isomer, unassigned) [Example 28a] | > 30000 nM | 7840 nM | –
16 | C=CC(=O)N1CCN(c2nc(OC[C@@H]3CCCN3C)nc3c2CCC2(CCc4c2ccc2[nH]ncc42)O3)C[C@@H]1CC#N (single isomer, unassigned) [Example 28b] | – | 2330 nM | 29400 nM
17 | C=CC(=O)N1CCN(c2nc(OC[C@@H]3CCCN3C)nc3c2CCC2(CCCc4ccccc42)O3)[C@@H](C)C1 (stereo partly drawn) [Example 13a, 1-((3S)-3-methyl-4-(2′-(((S)-1-methylpyrrolidin-2-yl)methoxy)-3,4,5′,6′-tetrahydro-2H-spiro[naphthalene-1,7′-pyrano[2,3-d]pyrimidin]-4′-yl)piperazin-1-yl)prop-2-en-1-one] | 4980 nM | 576 nM | –
18 | C=CC(=O)N1CCN(c2nc(OC[C@@H]3CCCN3C)nc3c2CCC2(CCCc4ccccc42)O3)C[C@H]1C (stereo partly drawn) [Example 14a, 1-((2R)-2-methyl-4-(2′-(((S)-1-methylpyrrolidin-2-yl)methoxy)-3,4,5′,6′-tetrahydro-2H-spiro[naphthalene-1,7′-pyrano[2,3-d]pyrimidin]-4′-yl)piperazin-1-yl)prop-2-en-1-one] | 4200 nM | 2080 nM | –
19 | C=CC(=O)N1CCN(c2nc(OC[C@@H]3CCCN3C)nc3c2CCC2(Cc4ccccc4C2)O3)C[C@@H]1CC#N [Example 29, 2-((S)-1-acryloyl-4-(2′-(((S)-1-methylpyrrolidin-2-yl)methoxy)-1,3,5′,6′-tetrahydrospiro[indene-2,7′-pyrano[2,3-d]pyrimidin]-4′-yl)piperazin-2-yl)acetonitrile] | 19200 nM | 5010 nM | –
20 | C=CC(=O)N1CCN(c2nc(OC[C@@H]3CCCN3C)nc3c2CCC2(O3)c3ccccc3-c3ccccc32)C[C@@H]1CC#N [Example 30, 2-((S)-1-acryloyl-4-(2′-(((S)-1-methylpyrrolidin-2-yl)methoxy)-5′,6′-dihydrospiro[fluorene-9,7′-pyrano[2,3-d]pyrimidin]-4′-yl)piperazin-2-yl)acetonitrile] | 1290 nM | 68.6 nM | –
